Laboratory results from patent publication US9593109B2, “Bicyclic agonists of GPR131 and uses thereof” (CYMABAY THERAPEUTICS, INC., priority 2011, dated 2017).

biological target: T1, human GPR131 (Homo sapiens, UniProt Q8TDU6); experiment: Stimulation of cAMP (agonism of GPR131), FRET cAMP assay; type: cell-based; conditions: 0.5 h; 1.1 μM compound; compared to maximal stimulatory activity of lithocholic acid (LCA) determined at 3.3 μM; stable cell line expressing human GPR131; 37° C. for 30 minutes; read-out: Percent Activity @ 1.1 μM (of 3.3 uM LCA) (%)
T1 construct: expressed in transfected cells
T1 sequence (Q8TDU6 1-330): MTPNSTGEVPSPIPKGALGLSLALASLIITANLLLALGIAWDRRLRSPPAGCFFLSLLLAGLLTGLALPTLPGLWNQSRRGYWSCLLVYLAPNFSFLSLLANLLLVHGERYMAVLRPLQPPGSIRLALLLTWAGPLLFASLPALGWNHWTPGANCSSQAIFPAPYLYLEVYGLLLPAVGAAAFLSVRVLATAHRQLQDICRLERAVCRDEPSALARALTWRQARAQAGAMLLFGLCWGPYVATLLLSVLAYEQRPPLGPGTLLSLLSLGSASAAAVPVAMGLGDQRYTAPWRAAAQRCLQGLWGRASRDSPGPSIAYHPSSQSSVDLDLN
Experimental: This assay was developed using a stable cell line expressing human GPR131.
To measure cAMP activity in response to GPR131 agonists, GPR131 cells suspended in DMEM/F12 medium with 1 mM IBMX were seeded in 384 well plates at 5000 cells per well. After incubating with test compounds at 37° C. for 30 minutes cAMP was measured using a fluorescene resonance energy transfer cAMP kit from Cis Bio (Bedford, Mass.) according to the manufacturer's instructions. Briefly, cells were lysed, and cAMP levels determined by competitive immunoassay using D2 labeled cAMP, and europium cryptate tagged anti cAMP antibody. Decreases in the FRET signal (fluorescence ratio (665 nm/620 […]) correspond to increases in intracellular cAMP levels.
Activities of test compounds in Table 1 below are expressed as percent activity at 1.1 μM compound compared to the maximal stimulatory activity of lithocholic acid (LCA) (determined at 3.3 μM LCA).

Row | Compound | activation at 1.1 µM [%]
1 | Clc1ccc(-n2nnnc2-c2c(-c3ccccc3Cl)nc3ccccn23)cc1 [Compound 500, 2-(2-Chlorophenyl)-3-(1-(4-chlorophenyl)-1H-tetrazol-5-yl)imidazo[1,2-a]pyridine] | 97.4
2 | O=c1[nH]nc(-c2c(-c3cc(Cl)ccc3Cl)nc3ccccn23)n1-c1ccc(Cl)cc1 [Compound 525, 4-(4-Chlorophenyl)-3-(2-(2,5-dichlorophenyl)imidazo[1,2-a]pyridin-3-yl)-1H-1,2,4-triazol-5(4H)-one] | 83.3
3 | Clc1ccc(-n2ccnc2-c2c(-c3ccccc3Cl)nc3ccccn23)cc1 [Compound 557, 2-(2-Chlorophenyl)-3-(1-(4-chlorophenyl)-1H-imidazol-2-yl)imidazo[1,2-a]pyridine] | 99.7
4 | Clc1ccc(-n2ccnc2-c2c(-c3cc(Cl)ccc3Cl)nc3cccnn23)cc1 [Compound 561, 3-(1-(4-Chlorophenyl)-1H-imidazol-2-yl)-2-(2,5-dichlorophenyl)imidazo[1,2-b]pyridazine] | 100
5 | Clc1ccc(-n2ncnc2-c2c(-c3ccccc3Cl)nc3ccccn23)cc1 [Compound 503, 2-(2-Chlorophenyl)-3-(1-(4-chlorophenyl)-1H-1,2,4-triazol-5-yl)imidazo[1,2-a]pyridine] | 97.4
6 | Clc1ccc(Cl)c(-c2nc3ccccn3c2-c2nncn2-c2ccc(-c3ccccc3)cc2)c1 [Compound 531, 3-(4-([1,1′-Biphenyl]-4-yl)-4H-1,2,4-triazol-3-yl)-2-(2,5-dichlorophenyl)imidazo[1,2-a]pyridine] | 88.8
7 | CCc1ccc(-n2cnnc2-c2c(-c3cc(Cl)ccc3Cl)nc3ccccn23)cc1 [Compound 529, 2-(2,5-Dichlorophenyl)-3-(4-(4-ethylphenyl)-4H-1,2,4-triazol-3-yl)imidazo[1,2-a]pyridine] | 99.6
8 | Clc1ccc(-n2cncc2-c2c(-c3cc(Cl)ccc3Cl)nc3ccccn23)cc1 [Compound 507, 3-(1-(4-Chlorophenyl)-1H-imidazol-5-yl)-2-(2,5-dichlorophenyl)imidazo[1,2-a]pyridine] | 100
9 | Fc1ccc(-c2nn3ccccc3c2-c2nncn2-c2ccc(Cl)cc2)cc1 [Compound 524, 3-(4-(4-Chlorophenyl)-4H-1,2,4-triazol-3-yl)-2-(4-fluorophenyl)pyrazolo[1,5-a]pyridine] | 99.1
10 | FC(F)(F)c1ccc(-n2ccnc2-c2c(-c3cc(Cl)ccc3Cl)nc3cccnn23)cc1 [Compound 565, 2-(2,5-Dichlorophenyl)-3-(1-(4-(trifluoromethyl)phenyl)-1H-imidazol-2-yl)imidazo[1,2-b]pyridazine] | 100
11 | Clc1ccc(-n2nnnc2-c2c(-c3cc(Cl)ccc3Cl)nc3n2CCCC3)cc1 [Compound 559, 3-(1-(4-Chlorophenyl)-1H-tetrazol-5-yl)-2-(2,5-dichlorophenyl)-5,6,7,8-tetrahydroimidazo[1,2-a]pyridine] | 94.6
12 | Clc1cccc(-c2nc3ccccn3c2-c2nncn2-c2ccc3cn[nH]c3c2)c1 [Compound 568, 6-(3-(2-(3-Chlorophenyl)imidazo[1,2-a]pyridin-3-yl)-4H-1,2,4-triazol-4-yl)-1H-indazole] | 96
13 | FC(F)(F)c1ccc(-n2ccnc2-c2c(-c3cc(Cl)ccc3Cl)nc3ccccn23)cc1 [Compound 564, 2-(2,5-Dichlorophenyl)-3-(1-(4-(trifluoromethyl)phenyl)-1H-imidazol-2-yl)imidazo[1,2-a]pyridine] | 100
14 | Cc1ccc(-n2cnnc2-c2c(-c3cc(Cl)ccc3Cl)nc3ccccn23)cn1 [Compound 540, 2-(2,5-Dichlorophenyl)-3-(4-(6-methylpyridin-3-yl)-4H-1,2,4-triazol-3-yl)imidazo[1,2-a]pyridine] | 96
15 | Clc1ccc(-n2ccnc2-c2c(-c3cc(Cl)ccc3Cl)nc3ccccn23)cc1 [Compound 506, 3-(1-(4-Chlorophenyl)-1H-imidazol-2-yl)-2-(2,5-dichlorophenyl)imidazo[1,2-a]pyridine] | 99.4
16 | Fc1ccccc1-n1cnnc1-c1c(-c2cc(Cl)ccc2Cl)nc2ccccn12 [Compound 534, 2-(2,5-Dichlorophenyl)-3-(4-(2-fluorophenyl)-4H-1,2,4-triazol-3-yl)imidazo[1,2-a]pyridine] | 96.8
17 | Clc1ccc(-n2cnnc2-c2c(-c3cc(Cl)ccc3Cl)nc3ccccn23)cc1 [Compound 553, 3-(4-(4-Chlorophenyl)-4H-1,2,4-triazol-3-yl)-2-(2,5-dichlorophenyl)imidazo[1,2-a]pyridine] | 99.9
18 | Fc1ccc(-n2cnnc2-c2c(-c3cc(Cl)ccc3Cl)nc3ccccn23)cc1 [Compound 533, 2-(2,5-Dichlorophenyl)-3-(4-(4-fluorophenyl)-4H-1,2,4-triazol-3-yl)imidazo[1,2-a]pyridine] | 100
19 | Cn1ncc2cc(-n3cnnc3-c3c(-c4cc(Cl)ccc4Cl)nc4ccccn34)ccc21 [Compound 519, 5-(3-(2-(2,5-Dichlorophenyl)imidazo[1,2-a]pyridin-3-yl)-4H-1,2,4-triazol-4-yl)-1-methyl-1H-indazole] | 99.9
20 | Clc1ccc(Cl)c(-c2nc3ccccn3c2-c2nncn2-c2ccc3[nH]ncc3c2)c1 [Compound 514, 5-(3-(2-(2,5-Dichlorophenyl)imidazo[1,2-a]pyridin-3-yl)-4H-1,2,4-triazol-4-yl)-1H-indazole] | 93.3
21 | Clc1ccc(-n2cnnc2-c2c(-c3ccccc3Cl)nc3ccccn23)cc1 [Compound 501, 2-(2-Chlorophenyl)-3-(4-(4-chlorophenyl)-4H-1,2,4-triazol-3-yl)imidazo[1,2-a]pyridine] | 99.4
22 | Fc1cccc(-n2cnnc2-c2c(-c3cc(Cl)ccc3Cl)nc3ccccn23)c1 [Compound 535, 2-(2,5-Dichlorophenyl)-3-(4-(3-fluorophenyl)-4H-1,2,4-triazol-3-yl)imidazo[1,2-a]pyridine] | 99.6
23 | FC(F)(F)c1ccc(-n2cnnc2-c2c(-c3cc(Cl)ccc3Cl)nc3ccccn23)cc1 [Compound 513, 2-(2,5-Dichlorophenyl)-3-(4-(4-(trifluoromethyl)phenyl)-4H-1,2,4-triazol-3-yl)imidazo[1,2-a]pyridine] | 100
24 | S=c1[nH]nc(-c2c(-c3cc(Cl)ccc3Cl)nc3ccccn23)n1-c1ccc(Cl)cc1 [Compound 526, 4-(4-Chlorophenyl)-3-(2-(2,5-dichlorophenyl)imidazo[1,2-a]pyridin-3-yl)-1H-1,2,4-triazole-5(4H)-thione] | 98.9
